Data: US20120107240A1, “Probes and methods of melanoma imaging” (The Board of Trustees of the Leland Stanford Junior …, priority 2010, published 2012)

What was measured:
B16F10 tumor = test: microPET quantification (ROI analysis) of tumors and other organs in B16F10 tumor-bearing mice; type: in vivo, C57BL/6 mice; settings: for tumor uptake: tail vein, B16F10 tumor
Description: B16F10 was cultured in Dulbecco's modified Eagle high-glucose medium (Gibco Life Sciences) supplemented with 10% fetal bovine serum with penicillin and streptomycin. The cells were regularly maintained in a 37° C., 5% CO2 humidified incubator. The subcutaneous B16F10 tumor models were prepared with 5- to 6-wk-old male C57BL/6 mice (Charles River). Static microPET scans were performed on the B16F10 tumor-bearing mice and representative decay-corrected coronal images at 0.5, 1, and 2 h after tail vein injection of ^18F-P3BZA (3-^18F-fluoropicolinamide) probe and ^18F-P2BZA (2-^18F-fluoronicotinamide) probe are shown in FIG. 2 (n=5 for each group), from which the B16F10 tumors were clearly visualized with good tumor-to-background contrast for both tracers (the white arrows indicate the tumors).
The microPET quantification analysis of tumors and other organs was obtained from the ROI analysis and the results at 0.5, 1, and 2 h p.i. are shown in FIG. 3. The tumor uptake of 18F-F3BZA probe was 11.8±2.2, 13.2±2.4, and 14.5±3.2% ID/g at 0.5, 1, and 2 h p.i., respectively. For ^18F-P2BZA probe, the tumor uptake was 5.5±1.6, 4.6±2.4, 5.5±2.6% ID/g at 0.5, 1, and 2 h p.i., respectively. […] The unspecific uptake by muscle is very low, 0.8±0.4, 1.0±0.5, 0.6±0.3% ID/g at 0.5, 1, and 2 h p.i.), which is the explanation of the high contrast images shown in FIG. 2.
(§1) The ^18F-fluoropicolinamides were prepared by radiofluorination reactions using no-carrier-added ^18F-fluoride and evaluated in vivo by biodistribution studies and micro-positron emission tomography (microPET) imaging in C57BL/6 mice bearing B16F10 murine melanoma tumors.

[1] = test system: B16F10 murine melanoma tumors; test: Noninvasive microPET and direct tissue sampling (biodistribution) in subcutaneous B16F10 melanoma xenografts; type: in vivo, C57BL/6 mice
Description: as §1
The total synthesis time was less than 1 hour. The radiochemical purity of the ^18F-labeled probes was more than 98% and the specific activity was 100-150 GBq/μmol.

| Substance | tumor uptake (B16F10 tumor; 0.5 h post injection) | tumor uptake (B16F10 tumor; 1 h post injection) | tumor uptake (B16F10 tumor; 2 h post injection) | bone uptake (B16F10 tumor; 1 h postinjection) | bone uptake (B16F10 tumor; 2 h postinjection) | defluorination in the murine model (B16F10 tumor; evidenced by bone uptake) | in vivo stability ([1]; evidenced by bone uptake) | bone uptake in biodistribution studies ([1]; mouse, in vivo) | Kidneys uptake (B16F10 tumor; 0.5 h p.i.) | Liver uptake (B16F10 tumor; 0.5 h p.i.) | unspecific uptake by muscle (B16F10 tumor; 0.5 h p.i.) | Kidneys uptake (B16F10 tumor; 1 h p.i.) | Liver uptake (B16F10 tumor; 1 h p.i.) | unspecific uptake by muscle (B16F10 tumor; 1 h p.i.) | Kidneys uptake (B16F10 tumor; 2 h p.i.) | Liver uptake (B16F10 tumor; 2 h p.i.) | unspecific uptake by muscle (B16F10 tumor; 2 h p.i.) | tumor uptake (B16F10 tumor; 2 h post injection, listed as 18F-F3BZA) | tumor to muscle ratio (B16F10 tumor; at 2 h) | clearance from the blood (B16F10 tumor; mouse, in vivo) |
| --- | --- | --- | --- | --- | --- | --- | --- | --- | --- | --- | --- | --- | --- | --- | --- | --- | --- | --- | --- | --- |
| 2-^18F-fluoronicotinamide [^18F-P2BZA, reference compound] | 5.5±1.6 % ID/g | 4.6±2.4 % ID/g | 5.5±2.6 % ID/g | – | – | – | – | – | – | – | – | – | – | – | – | – | – | – | – | – |
| 4-^18F-fluoropicolinamide [^18F-P4BZA] | 10.7±1.3 % ID/g | 10.5±1.8 % ID/g | 8.7±2.3 % ID/g | 11.3±2.9 % ID/g | 10.3±3.6 % ID/g | very high | – | – | – | – | – | – | – | – | – | – | – | – | – | – |
| 3-^18F-fluoropicolinamide [^18F-P3BZA] | 11.8±2.2 % ID/g | 13.2±2.4 % ID/g | 14.6±3.2 % ID/g | – | – | – | good | low | 6.9±1.1 % ID/g | 5.1±0.8 % ID/g | 0.8±0.4 % ID/g | 4.7±0.8 % ID/g | 4.3±1.1 % ID/g | 1.0±0.5 % ID/g | 3.0±0.6 % ID/g | 3.0±0.6 % ID/g | 0.6±0.3 % ID/g | 14.5±3.2 % ID/g | 25.3 | cleared rapidly |
